Data from patent publication US11512053B2, “Arginine methyltransferase inhibitors and uses thereof” (priority 2013, dated 2022).
pIC50: −log10 of the molar value. Like-named read-outs stand apart in the source and are kept apart here.

Tests used:
[1] = molecular target: full-length human PRMT1 isoform 1 (GST-tagged) (Homo sapiens, UniProt Q99873); test: PRMT1 Biochemical Assay (3H-SAM Flashplate, peptide substrate)
Outline: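 GST-tagged full-length PRMT1 from baculovirus-infected cells, preincubated 30 min at room temperature with compound in 20 mM Bicine pH 7.6, TCEP, BSG, Tween 20. Reaction started with 3H-SAM plus biotinylated peptide, stopped with 300 uM unlabelled SAM. Streptavidin Flashplate capture and scintillation counting; % inhibition curve-fitted for IC50.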

[2] = molecular target: full-length human PRMT8 isoform 1 (Homo sapiens, UniProt Q9NR22); test: PRMT8 Biochemical Assay (3H-SAM Flashplate, peptide substrate); settings: read-out: Biochemical IC50 PRMT8
full-length human PRMT8 isoform 1, sequence (Q9NR22 whole entry, canonical isoform): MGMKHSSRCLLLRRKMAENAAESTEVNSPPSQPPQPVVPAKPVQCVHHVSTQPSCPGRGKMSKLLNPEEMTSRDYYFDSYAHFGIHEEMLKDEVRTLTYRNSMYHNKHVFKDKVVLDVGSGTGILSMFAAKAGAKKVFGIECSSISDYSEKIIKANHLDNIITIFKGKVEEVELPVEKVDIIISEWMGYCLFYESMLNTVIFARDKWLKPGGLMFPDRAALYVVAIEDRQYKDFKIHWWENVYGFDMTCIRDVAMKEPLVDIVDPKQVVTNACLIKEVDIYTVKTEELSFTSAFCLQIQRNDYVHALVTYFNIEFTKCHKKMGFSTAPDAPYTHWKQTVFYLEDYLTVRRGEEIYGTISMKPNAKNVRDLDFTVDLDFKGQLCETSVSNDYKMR
Outline: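 Full-length human PRMT8 (1.5 nM, E. coli-expressed, GST removed) preincubated 30 min at room temperature with compound, then reacted with 50 nM 3H-SAM plus 550 nM cold SAM and 150 nM biotinylated H4 31-45 peptide in 20 mM Bicine pH 7.6, 1 mM TCEP, 0.005% BSG, 0.002% Tween 20, 2% DMSO. Quenched with 400 uM cold SAM; labelled peptide captured on streptavidin Flashplate, % inhibition versus 1 mM SAH and DMSO controls fitted to 4- or 3-parameter curve.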

[3] = single experiment or average of multiple experiments

full-length human PRMT1 isoform 1 (GST-tagged), sequence (Q99873 with tags, fused parts or gaps): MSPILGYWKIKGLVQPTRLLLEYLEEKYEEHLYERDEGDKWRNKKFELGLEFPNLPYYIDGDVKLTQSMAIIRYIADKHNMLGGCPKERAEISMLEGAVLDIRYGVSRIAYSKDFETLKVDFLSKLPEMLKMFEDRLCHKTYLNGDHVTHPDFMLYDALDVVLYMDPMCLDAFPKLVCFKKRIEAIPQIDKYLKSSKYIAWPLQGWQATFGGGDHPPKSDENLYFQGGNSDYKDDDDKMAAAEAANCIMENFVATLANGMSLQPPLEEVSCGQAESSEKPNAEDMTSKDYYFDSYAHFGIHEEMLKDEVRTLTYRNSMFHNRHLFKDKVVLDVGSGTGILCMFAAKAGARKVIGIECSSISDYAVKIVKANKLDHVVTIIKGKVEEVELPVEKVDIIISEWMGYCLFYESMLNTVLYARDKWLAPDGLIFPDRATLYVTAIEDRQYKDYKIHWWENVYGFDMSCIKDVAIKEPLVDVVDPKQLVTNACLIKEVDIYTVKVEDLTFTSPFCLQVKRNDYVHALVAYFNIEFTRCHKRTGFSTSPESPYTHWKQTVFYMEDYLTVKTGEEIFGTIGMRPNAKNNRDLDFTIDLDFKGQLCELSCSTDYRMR

SMILES | pIC50 [1] | pIC50 [1, 3] | pIC50 [2] | pIC50 [2, 3]
CNCCN(C)Cc1c[nH]nc1C1CCC(CC(C)C)CC1 (centres unmarked) [Compound 169] | > 7.00 | 8.19 | > 7.00 | 7.99
CNCCN(C)Cc1c[nH]nc1C1CC(C)OC(C)C1 (centres unmarked) [Compound 179] | > 7.00 | 7.80 | > 7.00 | 7.24
CNCCN(C)Cc1c[nH]nc1[C@H]1CC[C@H](OCCOc2ccc(OC)cc2)CC1 [Compound 186] | 6.00 to 7.00 | 6.96 | > 7.00 | 7.05
CNCCN(C)Cc1c[nH]nc1[C@H]1CC[C@H](OCCOc2ccccc2)CC1 [Compound 187] | 6.00 to 7.00 | 6.71 | 6.00 to 7.00 | 6.73

Now from value to compound:

pIC50 [1] | pIC50 [1, 3] | pIC50 [2] | pIC50 [2, 3] | SMILES
> 7.00 | 7.68 | > 7.00 | 7.63 | CNCCN(C)Cc1c[nH]nc1C1CCC2(CC1)NC(=O)N(C)C2=O (centres unmarked) [Compound 170]
> 7.00 | 7.88 | > 7.00 | 7.53 | CNCCN(C)Cc1c[nH]nc1C1CCC2(CC1)NC(=O)NC2=O (centres unmarked) [Compound 175]
> 7.00 | 7.99 | > 7.00 | 7.54 | CNCCN(C)Cc1c[nH]nc1C1CCC2(CCNC2=O)CC1 (centres unmarked) [Compound 176]
> 7.00 | 7.56 | 6.00 to 7.00 | 6.82 | CNCCN(C)Cc1c[nH]nc1C1CCC2(CC1)OCCO2 [Compound 177]
> 7.00 | 8.24 | > 7.00 | 7.69 | CNCCN(C)Cc1c[nH]nc1C1CCC2(CCOCC2)CC1 [Compound 178]
> 7.00 | 7.94 | > 7.00 | 7.49 | CNCCN(C)Cc1c[nH]nc1C1CCC(O)C2(CCCC2)C1 (centres unmarked) [Compound 182, 9-[4-({methyl[2-(methylamino)ethyl]amino}methyl)-1H-pyrazol-3-yl]spiro[4.5]decan-6-ol]
> 7.00 | 7.85 | > 7.00 | 7.61 | CNCCN(C)Cc1c[nH]nc1C1CCC(C)(C)C(O)C1 (centres unmarked) [Compound 185, 2,2-dimethyl-5-[4-({methyl[2-(methylamino)ethyl]amino}methyl)-1H-pyrazol-3-yl]cyclohexan-1-ol]
